In this experiment the test system is U2OS cells. As to the kind of experiment: Multicolor competition assay (MCA) of DNA damage sensitivity. The experiment is classed as cell-based. The conditions noted are these: 7 days of culture, read-out: concentration resulting in about 50% survival of non-transfected cells. On the procedure: U2OS cells were infected with MSCVgfp or MSCVdsRed, which were packaged in 293T by co-transfection with VSVG vector using TransIT-293 (Minis). Without selection, the cells were sorted using the Aria Sorter (BD) for intermediate expression. The gfp cells grew slightly faster than the rfp cells and this was taken into account when calculating the changes in survival due to treatment with DNA damaging agents. siRNA transfections were performed as described above with gfp cells being transfected with a control siRNA (luciferase) and rfp cells with an siRNA of interest. On the third day after transfections, gfp and rfp cells were counted and mixed in 1 to 1 ratio and were left untreated or were treated with IR or MMC. The concentration of Mitomycin C (Sigma) was chosen to result in about 50% survival of non-transfected cells, which was about 70 nM MMC for U2OS cells. After 7 days of culture, all cells were collected and analyzed using Cytomix FC500 Analyzer (Beckman Coulter). […]
Two populations of U20S (osteosarcoma) cells differing only in their color were created by expression of red fluorescent protein (RFP) or green fluorescent protein (GFP). siRNA depletion of the protein of interest was carried out in the […] were transfected with control siRNA. […] After 7 days, cells were harvested and a ratio of red to green cells was determined using flow cytometry. […]

Take `CO[C@@]12[C@H](COC(N)=O)C3=C(C(=O)C(C)=C(N)C3=O)N1C[C@@H]1N[C@@H]12` [Mitomycin C]: the IC50 is around 70 nM.

For the origin of these results see US20130280258A1, “PROGNOSTIC, DIAGNOSTIC, AND CANCER THERAPEUTIC USES OF FANCI AND FANCI MODULATING AGENTS” (Miltenyi Biotec GmbH, priority 2007, published 2013).
